Results as given in article PMC9532951, “Identification and characterization of a novel SNAT2 (SLC38A2) inhibitor reveals synergy with glucose transport inhibition in cancer cells” (Frontiers in Pharmacology, 2022).
“And” between values parts separate entries of the source, which are not always exact repeats. Equal entries are not always repeated.

Columns and labels:
HPAFII cells = assay: Growth assay (IncuCyte confluence), HPAFII; assay type: cell-based, human; design: key to Growth (Figure 6A) / cell confluence (Figure 6F): % confluence; details: CB-839 10uM, replicates 1-3
Description: (§1) Cells were seeded on 96-well flat bottom plates at approximately 3000 cells/well and incubated in growth medium (DMEM/F12 supplemented with 10% FBS, 2 mM glutamine) for 24 h. The next day, the growth medium was aspirated and exchanged with 300 μL/well of growth medium containing compounds at the indicated concentration. For live cell analysis, plates were placed in the IncuCyte system (Essen Bioscience), which was housed in a cell incubator (37°C, humidified atmosphere composed of 95% air and 5% CO2) and confluence measured at 6-h intervals or at the assay endpoint when untreated control cells reached a confluency >90%. Antibiotics (10 U/mL penicillin and 10 μg/ml streptomycin) were included in the treatment solutions.
(§2) Growth curves were generated using the Gompertz function of OriginPro software: y=ae^−e^(−k(x−xc))
(§3) Where a is the maximum confluence or upper asymptote, k is the growth rate coefficient, xc is the time point at which 50% confluence is reached (inflection point) and e is Euler’s number. Cell growth data are shown as % confluence.
(§4) Synergism between drug combinations was quantified using ZIP synergy scoring as calculated by SynergyFinder ([Yadav et al., 2015]).

MDA-MB-231 cells = assay: Growth assay (IncuCyte confluence), MDA-MB-231; assay type: cell-based, human; design: key to Growth (Figure 6A) / cell confluence (Figure 6F): % confluence; details: MDA-MB-231; CB-839 10uM; replicates 1-3
Description: as §1, §2, §3, §4

SMILES: O=C(Cc1cccc(OC(F)(F)F)c1)Nc1ccc(CCCCc2nnc(NC(=O)Cc3ccccn3)s2)nn1 [CB-839]
- cell confluence (Figure 6F) (HPAFII cells): 88.1 and 96.7 and 88.9
- cell confluence (Figure 6F) (MDA-MB-231 cells): 98.45 and 98.5 (2×)
